Measurements: patent publication US20040121946A9, “Inducing cellular immune responses to her2/neu using peptide and nucleic acid compositions” (priority 2002, published 2004)

Assays:
DRB1*0101 (DR1) = DRB1*0101 (DR1) (Homo sapiens, UniProt P01903+P01911, A100R/D57E/F55L/F60I/F76Y/I96L/L162R/M171V/P40L/Q125E/R42F/V115G/Y59C); test: HLA class II peptide binding assay, purified HLA; conditions: unit not given
DRB1*0301 (DR3) = DRB1*0301 (DR3) (Homo sapiens, UniProt P01903+P01911, A100K/A102G/A103R/A169T/F55Y/I96L/K41T/L162R/M171V/P40S/Q125H/Q178H/Q39Y/R42S/S66N/T106N/T262R/W38E/Y61H); test: HLA class II peptide binding assay, purified HLA; conditions: unit not given
DRB1*0401 (DR4w4) = DRB1*0401 (DR4w4) (Homo sapiens, UniProt P01903+P01911, A100K/A169T/F76Y/I96L/K127E/L162R/M171V/N62H/P40V/Q125Y/R42H/S133A/S149N/S66Y/V115G/V209L/W38E); test: HLA class II peptide binding assay, purified HLA; conditions: unit not given
DRB1*0701 (DR7) = DRB1*0701 (DR7) (Homo sapiens, UniProt P01903+P01911, A100R/A102G/A103Q/D57E/D86V/E43K/F76Y/K127E/L162R/M171V/P40G/Q125H/Q99D/R33Q/R42Y/R54Q/S133A/S66F/T210M/V115G/Y107V/Y59L/Y89S); test: HLA class II peptide binding assay, purified HLA; conditions: unit not given
DRB1*0802 (DR8w2) = DRB1*0802 (DR8w2) (Homo sapiens, UniProt P01903+P01911, A100R/A103L/A169T/F76Y/H45Y/I96F/K41T/L162R/M171V/P40S/Q125H/Q178H/Q39Y/Q99D/R218S/R42G/S66Y/V115G/W38E); test: HLA class II peptide binding assay, purified HLA; conditions: for DR8w2 binding data: unit not given
DRB1*1101 (DR5w11) = DRB1*1101 (DR5w11) (Homo sapiens, UniProt P01903+P01911, A100R/A169T/A87E/I96F/K41T/L162R/M171V/P40S/Q125H/Q178H/Q39Y/Q99D/R42S/S66Y/T262R/V115G/W38E); test: HLA class II peptide binding assay, purified HLA; conditions: for DR5w11 binding data: unit not given
DRB1*1302 (DR6w19) = DRB1*1302 (DR6w19) (Homo sapiens, UniProt P01903+P01911, A100E/A169T/K41T/L162R/M171V/P40S/Q125H/Q178H/Q39Y/Q99D/R42S/S66N/T262R/V115G/W38E/Y61H); test: HLA class II peptide binding assay, purified HLA; conditions: for DR6w19 binding data: unit not given
DRB1*1501 (DR2w2β1) = DRB1*1501 (DR2w2β1) (Homo sapiens, UniProt P01903+P01911); test: HLA class II peptide binding assay, purified HLA; conditions: for DR2wB1 binding data: Table XIX, DR supermotif peptides
DRB5*0101 (DR2w2β2) = DRB5*0101 (DR2w2β2) (Homo sapiens, UniProt P01903+Q30154); test: HLA class II peptide binding assay, purified HLA; conditions: unit not given
[1] = test system: HLA-DR molecules (DR1, DR4w4, DR7, DRB5*0101, DRB1*1501, DRB1*1101, DRB1*0802, DRB1*1302); test: DR supertype cross-reactive binding; set-up: species or system human; conditions: for DR147 Binding / DR147 Cross-binding: number of DR1, DR4w4, DR7 bound; for DR147 Binding: Table XXIX; for DR147 Cross-binding: Table XXVIII; for Broad Binding (5/8): number of the 8 DR alleles bound
HLA-A*0301 = HLA-A*0301 (Homo sapiens, UniProt P04439); assay type: binding; conditions: Table XXIII, HLA-A3 supermotif-bearing peptides
HLA-A*1101 = HLA-A*1101 (Homo sapiens, UniProt P04439, A114D/D185E/E176A/F33Y/L180Q/S129P/T187R); assay type: binding; conditions: Table XXIII, HLA-A3 supermotif-bearing peptides
HLA-A*3101 = HLA-A*3101 (Homo sapiens, UniProt P04439, A270S/D185E/E176V/E277Q/F33T/G231S/G80R/H175R/I121M/I218V/I322F/K168Q/L300P/L318F/M331R/P217A/Q94H/R138Q/T323A/T345S/T97I/V358M); assay type: binding; conditions: Table XXIII, HLA-A3 supermotif-bearing peptides
HLA-A*6801 = HLA-A*6801 (Homo sapiens, UniProt P04439, A269V/D185E/E176V/E277Q/E87N/F33Y/G231S/I121M/I166T/I218V/L180W/L300P/L318F/N151K/P208A/P217A/Q86R/R169H/T345S); assay type: binding; conditions: Table XXIII, HLA-A3 supermotif-bearing peptides
[2] = Table XIX, DR supermotif peptides
[3] = Table XXa, DR 3a motif peptides

Structure (SMILES)	DR1 binding data (DRB1*0101 (DR1); [2])	DR3 binding data (DRB1*0301 (DR3); [2])	DR4w4 binding data (DRB1*0401 (DR4w4); [2])	DR7 binding data (DRB1*0701 (DR7); [2])	DR8w2 binding data (DRB1*0802 (DR8w2); [2])	DR5w11 binding data (DRB1*1101 (DR5w11); [2])	DR6w19 binding data (DRB1*1302 (DR6w19); [2])	DR2wB1 binding data (DRB1*1501 (DR2w2β1); unit not given)	DR2w2B2 binding data (DRB5*0101 (DR2w2β2); [2])	DR147 Binding [1]	DR147 Cross-binding [1]	Broad Binding (5/8) [1]	IC50 (HLA-A*0301) [nM]	IC50 (HLA-A*1101) [nM]	IC50 (HLA-A*3101) [nM]	IC50 (HLA-A*6801) [nM]	further results
CC[C@H](C)[C@H](NC(=O)[C@H](CCCCN)NC(=O)[C@H](CCCCN)NC(=O)[C@@H](N)CS)C(=O)N[C@@H](Cc1ccccc1)C(=O)NCC(=O)N[C@@H](CO)C(=O)N[C@@H](CC(C)C)C(=O)N[C@@H](C)C(=O)N[C@@H](Cc1ccccc1)C(=O)N[C@@H](CC(C)C)C(=O)N1CCC[C@H]1C(=O)N[C@@H](CCC(=O)O)C(=O)N[C@@H](CO)C(=O)N[C@@H](Cc1ccccc1)C(=O)O	0.2400	0.0010	−0.0025	0.0270	−0.0004	−0.0005	0.0034	0.0070	0.0016	2	2	2					IC50 (DRB1*1501 (DR2w2β1); Table XXIX, read-out: DR2w2β1 nM): 1300 nM
CC(C)C[C@H](NC(=O)[C@H](CC(=O)O)NC(=O)[C@H](CCCNC(=N)N)NC(=O)[C@H](Cc1c[nH]cn1)NC(=O)[C@@H](NC(=O)[C@H](CC(C)C)NC(=O)[C@H](CCCNC(=N)N)NC(=O)[C@@H](N)C(C)C)C(C)C)C(=O)N[C@@H](C)C(=O)N[C@@H](C)C(=O)N[C@@H](CCCNC(=N)N)C(=O)N[C@@H](CC(N)=O)C(=O)N[C@H](C(=O)N[C@@H](CC(C)C)C(=O)N[C@H](C(=O)O)C(C)C)C(C)C	0.0340	0.3400	0.0150	0.0230	0.1000	0.2700	0.0430	0.0064	0.0033								DR1 binding data (DRB1*0101 (DR1); [3]): 0.0340; DR3 binding data (DRB1*0301 (DR3); [3]): 0.3400; DR4w4 binding data (DRB1*0401 (DR4w4); [3]): 0.0150; DR7 binding data (DRB1*0701 (DR7); [3]): 0.0230; IC50 (DRB1*0802 (DR8w2); Table XXXI): 490 nM; DR8w2 binding data (DRB1*0802 (DR8w2); [3]): 0.1000; IC50 (DRB1*1101 (DR5w11); Table XXXI): 74 nM; DR5w11 binding data (DRB1*1101 (DR5w11); [3]): 0.2700; IC50 (DRB1*1302 (DR6w19); Table XXXI): 81 nM; DR6w19 binding data (DRB1*1302 (DR6w19); [3]): 0.0430; DR2w2B1 binding data (DRB1*1501 (DR2w2β1); Table XXa, DR 3a motif peptides, unit not given): 0.0064; DR2w2B2 binding data (DRB5*0101 (DR2w2β2); [3]): 0.0033; No. of DR Alleles Crossbound ([1]; Table XXXI): 4

Now from value to compound, other results behind:

DR1 binding data (DRB1*0101 (DR1); [2])	DR3 binding data (DRB1*0301 (DR3); [2])	DR4w4 binding data (DRB1*0401 (DR4w4); [2])	DR7 binding data (DRB1*0701 (DR7); [2])	DR8w2 binding data (DRB1*0802 (DR8w2); [2])	DR5w11 binding data (DRB1*1101 (DR5w11); [2])	DR6w19 binding data (DRB1*1302 (DR6w19); [2])	DR2wB1 binding data (DRB1*1501 (DR2w2β1); unit not given)	DR2w2B2 binding data (DRB5*0101 (DR2w2β2); [2])	DR147 Binding [1]	DR147 Cross-binding [1]	Broad Binding (5/8) [1]	IC50 (HLA-A*0301) [nM]	IC50 (HLA-A*1101) [nM]	IC50 (HLA-A*3101) [nM]	IC50 (HLA-A*6801) [nM]	Structure (SMILES)	further results
												1620	462	40	320	CC(C)[C@H](NC(=O)[C@@H](NC(=O)[C@@H](N)CCCNC(=N)N)[C@@H](C)O)C(=O)N[C@@H](CS)C(=O)N[C@@H](C)C(=O)NCC(=O)NCC(=O)N[C@@H](CS)C(=O)N[C@@H](C)C(=O)N[C@@H](CCCNC(=N)N)C(=O)O [Her2/neu.217]	
0.0670	0.0976	0.0060	0.1000	0.0051	0.0046	0.0013	0.0540	0.0027	2	2	3					CC[C@H](C)[C@H](NC(=O)[C@H](CCSC)NC(=O)[C@H](Cc1ccc(O)cc1)NC(=O)[C@@H](NC(=O)[C@H](CC(=O)O)NC(=O)[C@@H](NC(=O)[C@@H](NC(=O)[C@H](CS)NC(=O)[C@@H](NC(=O)[C@@H]1CCCN1C(=O)[C@@H]1CCCN1C(=O)[C@@H](N)CCC(N)=O)[C@@H](C)CC)[C@@H](C)O)[C@@H](C)CC)C(C)C)C(=O)N[C@@H](CCSC)C(=O)N[C@H](C(=O)N[C@@H](CCCCN)C(=O)O)C(C)C	
												275	7500	72	29	CC[C@H](C)[C@H](N)C(=O)N[C@H](C(=O)N[C@@H](CCCCN)C(=O)NCC(=O)NCC(=O)N[C@H](C(=O)N[C@@H](CC(C)C)C(=O)N[C@H](C(=O)N[C@@H](CCC(N)=O)C(=O)N[C@@H](CCCNC(=N)N)C(=O)O)[C@@H](C)CC)C(C)C)C(C)C [Her2/neu.148.V2]	
